According to patent publication US10034476B2, “Insecticidal phenyl-or pyridyl-piperdine compounds” (Syngenta Participations AG, priority 2008, dated 2018):
Structures can show the parent of a compound that is named as a salt.

How the values were obtained:
Assay type in all cases: in vivo
Spodoptera littoralis = Spodoptera littoralis (Egyptian cotton leafworm) cotton leaf disc spray test; conditions: foliar, 72 h, 200 ppm spray on cotton leaf discs, L1 larvae, 3 DAT, mortality, feeding behavior, growth regulation
From the text: Spodoptera littoralis (Egyptian Cotton Leafworm) Cotton leaf discs were placed on agar in a 24-well microtiter plate and sprayed with test solutions at an application rate of 200 ppm. After drying, the leaf discs were infested with 5 L1 larvae. The samples were checked for mortality, feeding behavior, and growth regulation 3 days after treatment (DAT).

Diabrotica balteata = Diabrotica balteata (corn root worm) artificial diet test; conditions: 120 h, 200 ppm (concentration in well 18 ppm), L2 larvae, 5 days, larval mortality, growth regulation
Experimental: Diabrotica Balteata (Corn Root Worm): A 24-well microtiter plate (MTP) with artificial diet was treated with test solutions at an application rate of 200 ppm (concentration in well 18 ppm) by pipetting. After drying, the MTP's were infested with larvae (L2) (6-10 per well). After an incubation period of 5 days, samples were checked for larval mortality, and growth regulation.

Heliothis virescens = Heliothis virescens (tobacco budworm) egg/artificial diet test; conditions: 96 h, 200 ppm (concentration in well 18 ppm), eggs 0-24 h old on artificial diet, 4 days, egg mortality, larval mortality, growth regulation
Experimental: Heliothis virescens (Tobacco Budworm): Eggs (0-24 h old) were placed in 24-well microtiter plate on artificial diet and treated with test solutions at an application rate of 200 ppm (concentration in well 18 ppm) by pipetting. After an incubation period of 4 days, samples were checked for egg mortality, larval mortality, and growth regulation.

Plutella xylostella = Plutella xylostella (diamond back moth) artificial diet test; conditions: 144 h, 200 ppm (concentration in well 18 ppm), L2 larvae, 6 days, larval mortality, growth regulation
Experimental: Plutella xylostella (Diamond Back Moth): 24-well microtiter plate (MTP) with artificial diet was treated with test solutions at an application rate of 200 ppm (concentration in well 18 ppm) by pipetting. After drying, the MTP's were infested with L2 larvae (7-12 per well). After an incubation period of 6 days, samples were checked for larval mortality and growth regulation.

Measured: pest or weed control at 200 ppm

O=C(Nc1cc(F)c(F)c(F)c1C1CCN(Cc2ccc(-c3ccc(F)cc3)cc2)CC1)c1ccnc(Cl)c1 [Compound E1, 2-chloro-N-{3,4,5-trifluoro-2-[1-(4′-fluoro-biphenyl-4-ylmethyl)-piperidin-4-yl]-phenyl}-isonicotinamide]
≥ 80%: all assays above

O=C(Nc1ccc(C(F)(F)F)cc1C1CCN(Cc2ccc(-c3ccc(Cl)cc3Cl)cc2)CC1)c1ccnc(Cl)c1 [Compound F1]
≥ 80%: all assays above

O=C(Nc1cc(F)c(F)c(F)c1C1CC[N+]([O-])(Cc2ccc(-c3ccc(F)cc3)cc2)CC1)c1ccnc(Cl)c1 (stereo not shown) [Compound G1, 2-chloro-N-{3,4,5-trifluoro-2-[1-(4′-fluoro-biphenyl-4-ylmethyl)-piperidin-4-yl]-phenyl}-isonicotinamide N-oxide]
≥ 80%: all assays above

O=C(Nc1ccc(C(F)(F)F)cc1C1CC[N+](O)(Cc2ccc(-c3ccc(F)cc3)cc2)CC1)c1ccnc(Cl)c1 (stereo not shown) [Compound J1]
≥ 80%: all assays above

O=C(Nc1ccc(C(F)(F)F)nc1C1CC[N+](O)(Cc2ccc(-c3ccc(F)cc3)cc2)CC1)c1ccnc(Cl)c1 (stereo not shown) [Compound K1, 2-chloro-N-[1′-(4′-fluoro-biphenyl-4-ylmethyl)-1′-oxy-6-trifluoromethyl-1′,2′,3′,4′,5′,6′-hexahydro-[2,4′]bipyridinyl-3-yl]-isonicotinamide 3-hydroxypropyl sulfonate salt]
≥ 80%: all assays above

O=C(Nc1cc(Cl)c(Cl)nc1C1CCN(Cc2ccc(-c3ccc(F)cc3)cc2)CC1)c1ccnc(Cl)c1 [Compound M1, hydrochloride]
≥ 80%: all assays above

O=C(Nc1ccc(C(F)(F)F)nc1C1CCN(Cc2ccc(-c3ccc(F)cc3)cc2)CC1)c1ccnc(Cl)c1 [Compound M4]
≥ 80%: all assays above
